Series [1] deals with B16. In words: Antitumor activity against subcutaneously B16 melanoma cells in mice at an optimal dose of 0.8 mg/kg expressed as […] effective dose. Type of series: functional, Mus musculus. Particulars: route subcutaneous; for minimal effective dose at 0.8 mg/kg: Mus musculus, B16, sc, read-out: MED.
The test system of series [2] is P388. In words: Antitumor activity against intraperitoneally implanted P388 leukemia cells in mice expressed as ratio of median survival time for treated group to that of control group at an optimal dose of 0.8 mg/kg. Type of series: functional, Mus musculus. Particulars: route intraperitoneal.
Series [3] has as its system B16. In words: (§1) Antitumor activity against subcutaneously B16 melanoma cells in mice expressed as ratio of median survival time for treated group to that of control group at an optimal dose of 1-3 mg/kg. Type of series: functional, Mus musculus.
The nature of series [4]: Partition coefficient (logP). The class given is physicochemical. Particulars: octanol/water.
Series [5] concerns P388. Put plainly: Antitumor activity against intraperitoneally implanted P388 leukemia cells in mice at an optimal dose of 0.8 mg/kg expressed as […] effective dose. Type of series: functional. Particulars: Mus musculus, P388, ip, route intraperitoneal, read-out: MED.
The subject of series [6] is B16. In words: Antitumor activity against subcutaneously B16 melanoma cells in mice expressed as ratio of median survival time for treated group to that of control group at an optimal dose of 0.8 mg/kg. Type of series: functional, Mus musculus. Particulars: route subcutaneous.
Series [7] deals with B16. The series is described as §1. Type of series: functional, Mus musculus. The source holds these as a separate data set.
The test system of series [8] is P388. In words: Antitumor activity against intraperitoneally implanted P388 leukemia cells in mice expressed as ratio of median survival time for treated group to that of control group at an optimal dose of 0.4 mg/kg. Type of series: functional, Mus musculus. Particulars: route intraperitoneal.
For series [9], the system named is B16. Put plainly: Antitumor activity against subcutaneously B16 melanoma cells in mice at an optimal dose of 1.2 mg/kg expressed as […] effective dose. The class given is functional. Particulars: Mus musculus, B16, sc, route subcutaneous, read-out: MED.
The subject of series [10] is B16. Put plainly: Antitumor activity against subcutaneously B16 melanoma cells in mice expressed as ratio of median survival time for treated group to that of control group at an optimal dose of 1.2 mg/kg. The class given is functional, Mus musculus. Particulars: route subcutaneous.
The test system of series [11] is B16. Put plainly: Antitumor activity against subcutaneously B16 melanoma cells in mice expressed as ratio of median survival time for treated group to that of control group at an optimal dose of 0.3 mg/kg. Type of series: functional, Mus musculus. Particulars: route subcutaneous.
The subject of series [12] is B16. In words: Antitumor activity against subcutaneously B16 melanoma cells in mice at an optimal dose of 0.3 mg/kg expressed as […] effective dose. The class given is functional. Particulars: Mus musculus, B16, sc, route subcutaneous, read-out: MED.
In series [13] the test system is P388. In words: Antitumor activity against intraperitoneally implanted P388 leukemia cells in mice at an optimal dose of 3.2 mg/kg expressed as […] effective dose. Particulars: Mus musculus, P388, ip, route intraperitoneal, read-out: MED. The class given is functional.
In series [14] the test system is P388. In words: Antitumor activity against intraperitoneally implanted P388 leukemia cells in mice expressed as ratio of median survival time for treated group to that of control group at an optimal dose of 3.2 mg/kg. Particulars: route intraperitoneal. Type of series: functional, Mus musculus.
The test system of series [15] is B16. Put plainly: Antitumor activity against subcutaneously B16 melanoma cells in mice at an optimal dose of 1.6 mg/kg expressed as […] effective dose. The class given is functional. Particulars: Mus musculus, B16, sc, route subcutaneous, read-out: MED.
The subject of series [16] is B16. In words: Antitumor activity against subcutaneously B16 melanoma cells in mice expressed as ratio of median survival time for treated group to that of control group at an optimal dose of 1.6 mg/kg. Particulars: route subcutaneous. The class given is functional, Mus musculus.
The test system of series [17] is B16. In words: Antitumor activity against subcutaneously B16 melanoma cells in mice at an optimal dose of 0.4 mg/kg expressed as […] effective dose. The class given is functional. Particulars: Mus musculus, B16, sc, route subcutaneous, read-out: MED.
In series [18] the test system is P388. Put plainly: Antitumor activity against intraperitoneally implanted P388 leukemia cells in mice at an optimal dose of 1.6 mg/kg expressed as […] effective dose. The class given is functional. Particulars: Mus musculus, P388, ip, route intraperitoneal, read-out: MED.
The subject of series [19] is P388. In words: Antitumor activity against intraperitoneally implanted P388 leukemia cells in mice expressed as ratio of median survival time for treated group to that of control group at an optimal dose of 1.6 mg/kg. Type of series: functional, Mus musculus. Particulars: route intraperitoneal.
The test system of series [20] is B16. In words: Antitumor activity against subcutaneously B16 melanoma cells in mice expressed as ratio of median survival time for treated group to that of control group at an optimal dose of 0.4 mg/kg. The class given is functional, Mus musculus. Particulars: route subcutaneous.

The structures appear in SMILES notation. “And” between values parts separate entries of the source, which are not always exact repeats. Equal values may be shown once.

As usually defined, the T/C is the ratio of treated to control. As a reminder, the logP is a log measure of how a compound divides between an organic and an aqueous phase. Low values mean a more hydrophilic compound, high ones a more lipophilic compound. In the case of `CO[C@@]12C(COC(N)=O)C3=C(C(=O)C(C)=C(OCC4CCCO4)C3=O)N1CC1NC12` (stereo not given in full), the minimal effective dose at 0.8 mg/kg in the series on B16 [1] is 0.2 mg/kg; in the series with P388 [5] it was under 0.05 mg/kg. The compound further displayed an MED in the series on B16 [1] of 0.2 mg/kg. Moreover, the T/C in the series with P388 [2] was 239%; with B16 [3] it was 133%; in the series on B16 [6] (0.8 mg/kg), 212% and 198%; with B16 [7], 147%. The same compound registered a logP in [4] of 1.29.

For the compound `CO[C@@]12C(COC(N)=O)C3=C(C(=O)C(C)=C(OCCC#N)C3=O)N1CC1NC12` (stereo not given in full), the T/C in the series on P388 [8] came out at 200%; in the series with B16 [10] it was 141%. The minimal effective dose at 1.2 mg/kg with B16 [9] worked out at 0.8 mg/kg.

`COC1=C(C)C(=O)C2=C(C1=O)[C@@H](COC(N)=O)[C@@]1(OC)[C@H]3N[C@H]3CN21` [MITOMYCIN A]: the T/C in the series on B16 [11] was found to be 177%; with P388 [14], 180%. This compound returned a lipophilicity (logP) in series [4] of 0.26. The minimal effective dose at 0.3 mg/kg with B16 [12] came out at 0.05 mg/kg. Besides, in the series with P388 [13], the minimal effective dose at 3.2 mg/kg came to 0.05 mg/kg.

For `CO[C@@]12C(COC(N)=O)C3=C(C(=O)C(C)=C(OCCSCCO)C3=O)N1CC1NC12` (stereo not given in full), the T/C with P388 [2] stood at 250%. In series [4], this compound gave a logP of 1.07. Also, the minimal effective dose at 0.8 mg/kg in the series on P388 [5] is under 0.1 mg/kg.

For the compound `C#CCOC1=C(C)C(=O)C2=C(C1=O)C(COC(N)=O)[C@@]1(OC)C3NC3CN21` (stereo not given in full), the results for the T/C in the series on P388 [2] and in the series on B16 [6] were 150% and 204%, respectively. The same compound returned a logP in series [4] of 0.74. Moreover, the minimal effective dose at 0.8 mg/kg in the series with P388 [5] is under 0.05 mg/kg.

As for `CO[C@@]12C(COC(N)=O)C3=C(C(=O)C(C)=C(OCCN(C)C)C3=O)N1CC1NC12` (stereo not given in full), the minimal effective dose at 1.6 mg/kg with B16 [15] was found to be 0.4 mg/kg. The logP in series [4] stood at 0.46. For the same compound, the T/C turned out to be 220% with B16 [16] and 281% with P388 [14]. Besides, the minimal effective dose at 3.2 mg/kg in the series on P388 [13] was under 0.025 mg/kg.

As to `CO[C@@]12C(COC(N)=O)C3=C(C(=O)C(C)=C(OC4CCOC4)C3=O)N1CC1NC12` (stereo not given in full), the T/C with B16 [3] is given as 135%; in the series on B16 [16], 198%; in the series with P388 [14] it was 178%. The minimal effective dose at 1.6 mg/kg in the series with B16 [15] came out at 1.6 mg/kg. Also, in series [4], the logP worked out at 0.79. In addition, the minimal effective dose at 3.2 mg/kg in the series on P388 [13] was under 0.05 mg/kg.

Take `CCOCCOCCOC1=C(C)C(=O)C2=C(C1=O)C(COC(N)=O)[C@@]1(OC)C3NC3CN21` (stereo not given in full): in the series with B16 [17], the minimal effective dose at 0.4 mg/kg stood at 0.2 mg/kg. Further, in the series with P388 [18], the minimal effective dose at 1.6 mg/kg is under 0.1 mg/kg. The compound also gave a logP in series [4] of 0.82. For the same compound, the T/C in the series on P388 [19] is given as 167%; with B16 [20] it was 196%.

Turning to `CO[C@@]12C(COC(N)=O)C3=C(C(=O)C(C)=C(OCCO)C3=O)N1CC1C2N1C` (stereo not given in full), the logP in series [4] is 0.67. Also, the minimal effective dose at 3.2 mg/kg with P388 [13] was determined as 0.05 mg/kg. For the same compound, the T/C in the series with P388 [14] is recorded as 222%.

In the case of `CO[C@@]12C(COC(N)=O)C3=C(C(=O)C(C)=C(OCCN4CCOCC4)C3=O)N1CC1NC12` (stereo not given in full), the logP in series [4] came to 0.49. Also, in the series on P388 [13], the minimal effective dose at 3.2 mg/kg is under 0.05 mg/kg. Besides, the T/C with P388 [14] is 256%; with B16 [20], 113%.

In the case of `COCCOCCOC1=C(C)C(=O)C2=C(C1=O)C(COC(N)=O)[C@@]1(OC)C3NC3CN21` (stereo not given in full), the minimal effective dose at 0.8 mg/kg in the series on B16 [1] is 0.4 mg/kg; in the series on P388 [5] it was under 0.1 mg/kg. The same compound displayed an MED with B16 [1] of 0.4 mg/kg. Also, the T/C in the series with P388 [2] was 225%; in the series with B16 [6] (0.8 mg/kg), >191% and >265%. Moreover, the logP in series [4] amounted to 0.32.

Turning to `C=CCOC1=C(C)C(=O)C2=C(C1=O)C(COC(N)=O)[C@@]1(OC)C3NC3CN21` (stereo not given in full), the minimal effective dose at 1.6 mg/kg in the series with P388 [18] was 0.1 mg/kg. The logP in series [4] came to 0.87. Also, the T/C in the series with P388 [19] was determined as 156%.

Source of the values: ChEMBL document CHEMBL1123664, “Preparation and antitumor activity of new mitomycin A analogues” (J Med Chem, 1987).
